The target in one assay is human Gal-3 (hGal-3) (Homo sapiens (Human), UniProt P17931). Description: Competitive binding assay: biotinylated hGal-3 to microplate-adsorbed asialofetuin (ASF). The following applies: Activity on hGal-3; binding to ASF-coated plates, 3 hours at 4° C.; mean values. The essentials: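 Biotinylated hGal-3 (300-1000 ng/mL) binding to plate-adsorbed asialofetuin, with DMSO-diluted compound added, incubated 3 h at 4 °C. After washing, bound protein detected with streptavidin-peroxidase (80 ng/mL, 1 h, 4 °C) and ABTS substrate, read spectrophotometrically. IC50 given as mean of several measurements.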
Chain of human Gal-3 (hGal-3) (P17931 whole entry): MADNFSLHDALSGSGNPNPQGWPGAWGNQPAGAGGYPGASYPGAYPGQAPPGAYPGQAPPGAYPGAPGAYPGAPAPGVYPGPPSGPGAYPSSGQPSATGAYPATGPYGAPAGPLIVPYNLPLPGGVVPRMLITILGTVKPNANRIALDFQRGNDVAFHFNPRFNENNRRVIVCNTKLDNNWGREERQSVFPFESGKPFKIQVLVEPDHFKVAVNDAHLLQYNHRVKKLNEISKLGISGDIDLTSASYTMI

A further assay deals with human Gal-1 (hGal-1) (Homo sapiens, UniProt P09382). The assay is described as follows: Competitive binding assay: biotinylated hGal-1 to microplate-adsorbed asialofetuin (ASF). The following applies: Activities on hGal-1; binding to ASF-coated plates, 3 hours at 4° C.; mean values; read-out: Gal-1 IC50. The essentials: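 Plate-adsorbed asialofetuin is incubated 3 h at 4 °C with biotinylated hGal-1, optionally its all-serine-substituted cysteine variant, plus compound dilutions. ABTS color after 1 h streptavidin-peroxidase (80 ng/mL) at 4 °C reports binding. Reported IC50 is a mean across repeat runs.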
Chain of human Gal-1 (hGal-1) (P09382 2-135 limits assumed): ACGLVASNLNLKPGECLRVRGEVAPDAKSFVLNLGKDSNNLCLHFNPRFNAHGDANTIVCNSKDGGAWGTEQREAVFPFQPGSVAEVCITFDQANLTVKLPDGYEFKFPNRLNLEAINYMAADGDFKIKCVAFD

For orientation: IC50 means the concentration needed to halve the response being measured. Consider `CO[C@@H]1[C@@H](n2cc(-c3ccc(F)c(F)c3F)nn2)[C@@H](O)[C@@H](CO)O[C@@H]1CC1=NO[C@]2(CC[C@H](C#N)CC2)C1` [Example 1.59, (5r,8R)-3-(((2R,3R,4S,5R,6R)-5-hydroxy-6-(hydroxymethyl)-3-methoxy-4-(4-(2,3,4-trifluorophenyl)-1H-1,2,3-triazol-1-yl)tetrahydro-2H-pyran-2-yl)methyl)-1-oxa-2-azaspiro[4.5]dec-2-ene-8-carbonitrile], for which the IC50 turned out to be 130 nM at human Gal-3 (hGal-3) and 220 nM at human Gal-1 (hGal-1).
For `CO[C@@H]1[C@@H](n2cc(-c3ccc(Cl)c(F)c3F)nn2)[C@@H](O)[C@@H](CO)O[C@@H]1CC1=NO[C@]2(CC[C@@H](C#N)CC2)C1` [Example 1.60, (5s,8S)-3-(((2R,3R,4S,5R,6R)-4-(4-(4-chloro-2,3-difluorophenyl)-1H-1,2,3-triazol-1-yl)-5-hydroxy-6-(hydroxymethyl)-3-methoxytetrahydro-2H-pyran-2-yl)methyl)-1-oxa-2-azaspiro[4.5]dec-2-ene-8-carbonitrile], the IC50 at human Gal-3 (hGal-3) was found to be 90 nM; at human Gal-1 (hGal-1) it was 1600 nM.
Consider `CO[C@@H]1[C@@H](n2cc(-c3ccc(Cl)c(F)c3F)nn2)[C@@H](O)[C@@H](CO)O[C@@H]1CC1=NO[C@]2(CC[C@H](C#N)CC2)C1` [Example 1.61, (5r,8R)-3-(((2R,3R,4S,5R,6R)-4-(4-(4-chloro-2,3-difluorophenyl)-1H-1,2,3-triazol-1-yl)-5-hydroxy-6-(hydroxymethyl)-3-methoxytetrahydro-2H-pyran-2-yl)methyl)-1-oxa-2-azaspiro[4.5]dec-2-ene-8-carbonitrile], for which the IC50 was found to be 49 nM at human Gal-3 (hGal-3) and 460 nM at human Gal-1 (hGal-1).
Take `CO[C@@H]1[C@@H](n2cc(-c3ccc(C)c(F)c3F)nn2)[C@@H](O)[C@@H](CO)O[C@@H]1CC1=NO[C@]2(CC[C@H](C(C)(C)O)CC2)C1` [Example 1.62, (2R,3R,4S,5R,6R)-4-(4-(2,3-difluoro-4-methylphenyl)-1H-1,2,3-triazol-1-yl)-2-(hydroxymethyl)-6-(((5r,8R)-8-(2-hydroxypropan-2-yl)-1-oxa-2-azaspiro[4.5]dec-2-en-3-yl)methyl)-5-methoxytetrahydro-2H-pyran-3-ol]: the IC50 came to 190 nM at human Gal-3 (hGal-3) and 4600 nM on human Gal-1 (hGal-1).
As for `CO[C@@H]1[C@@H](n2cc(-c3ccc(C)c(F)c3F)nn2)[C@@H](O)[C@@H](CO)O[C@@H]1CC1=NO[C@]2(CC[C@@H](C(C)(C)O)CC2)C1` [Example 1.63, (2R,3R,4S,5R,6R)-4-(4-(2,3-difluoro-4-methylphenyl)-1H-1,2,3-triazol-1-yl)-2-(hydroxymethyl)-6-(((5s,8S)-8-(2-hydroxypropan-2-yl)-1-oxa-2-azaspiro[4.5]dec-2-en-3-yl)methyl)-5-methoxytetrahydro-2H-pyran-3-ol], the 50% inhibitory concentration (IC50) at human Gal-3 (hGal-3) turned out to be 180 nM; on human Gal-1 (hGal-1), 3400 nM.
On to `CO[C@@H]1[C@@H](n2cc(-c3ccc(Cl)c(F)c3F)nn2)[C@@H](O)[C@@H](CO)O[C@@H]1CC1=NO[C@]2(CC[C@H](C(C)(C)O)CC2)C1` [Example 1.64, (2R,3R,4S,5R,6R)-4-(4-(4-chloro-2,3-difluorophenyl)-1H-1,2,3-triazol-1-yl)-2-(hydroxymethyl)-6-(((5r,8R)-8-(2-hydroxypropan-2-yl)-1-oxa-2-azaspiro[4.5]dec-2-en-3-yl)methyl)-5-methoxytetrahydro-2H-pyran-3-ol], for which the IC50 amounted to 490 nM on human Gal-3 (hGal-3) and 2400 nM at human Gal-1 (hGal-1).
In the case of `CO[C@@H]1[C@@H](n2cc(-c3ccc(Cl)c(F)c3F)nn2)[C@@H](O)[C@@H](CO)O[C@@H]1CC1=NO[C@]2(CC[C@@H](C(C)(C)O)CC2)C1` [Example 1.65, (2R,3R,4S,5R,6R)-4-(4-(4-chloro-2,3-difluorophenyl)-1H-1,2,3-triazol-1-yl)-2-(hydroxymethyl)-6-(((5s,8S)-8-(2-hydroxypropan-2-yl)-1-oxa-2-azaspiro[4.5]dec-2-en-3-yl)methyl)-5-methoxytetrahydro-2H-pyran-3-ol], the values for the IC50 at human Gal-3 (hGal-3) and at human Gal-1 (hGal-1) were 120 nM and 2700 nM, respectively.
As for `CO[C@@H]1[C@@H](n2cc(-c3cc(F)c(F)c(F)c3)nn2)[C@@H](O)[C@@H](CO)O[C@@H]1CC1=NOC2(CCC(=O)CC2)C1` [Example 1.66, 3-(((2R,3R,4S,5R,6R)-5-hydroxy-6-(hydroxymethyl)-3-methoxy-4-(4-(3,4,5-trifluorophenyl)-1H-1,2,3-triazol-1-yl)tetrahydro-2H-pyran-2-yl)methyl)-1-oxa-2-azaspiro[4.5]dec-2-en-8-one], the IC50 on human Gal-3 (hGal-3) came out at 250 nM; on human Gal-1 (hGal-1), 2700 nM.
For the compound `COC(=O)CO[C@@H]1[C@@H](n2cc(-c3cc(F)c(F)c(F)c3)nn2)[C@@H](O)[C@@H](CO)O[C@@H]1CC1=NOC2(CCCCC2)C1` [Example 1.68, methyl 2-(((2R,3R,4S,5R,6R)-2-((1-oxa-2-azaspiro[4.5]dec-2-en-3-yl)methyl)-5-hydroxy-6-(hydroxymethyl)-4-(4-(3,4,5-trifluorophenyl)-1H-1,2,3-triazol-1-yl)tetrahydro-2H-pyran-3-yl)oxy)acetate], the IC50 at human Gal-3 (hGal-3) came out at 220 nM; on human Gal-1 (hGal-1) it was 3700 nM.
For the compound `CCO[C@@H]1[C@@H](n2cc(-c3cc(F)c(F)c(F)c3)nn2)[C@@H](O)[C@@H](CO)O[C@@H]1CC1=NOC2(CCCCC2)C1` [Example 1.69, (2R,3R,4S,5R,6R)-6-((1-oxa-2-azaspiro[4.5]dec-2-en-3-yl)methyl)-5-ethoxy-2-(hydroxymethyl)-4-(4-(3,4,5-trifluorophenyl)-1H-1,2,3-triazol-1-yl)tetrahydro-2H-pyran-3-ol], the half-maximal inhibitory concentration (IC50) at human Gal-3 (hGal-3) came out at 300 nM; on human Gal-1 (hGal-1), 3100 nM.
`CNC(=O)CO[C@@H]1[C@@H](n2cc(-c3cc(F)c(F)c(F)c3)nn2)[C@@H](O)[C@@H](CO)O[C@@H]1CC1=NOC2(CCCCC2)C1` [Example 1.70, 2-(((2R,3R,4S,5R,6R)-2-((1-oxa-2-azaspiro[4.5]dec-2-en-3-yl)methyl)-5-hydroxy-6-(hydroxymethyl)-4-(4-(3,4,5-trifluorophenyl)-1H-1,2,3-triazol-1-yl)tetrahydro-2H-pyran-3-yl)oxy)-N-methylacetamide]: the IC50 at human Gal-3 (hGal-3) turned out to be 240 nM; at human Gal-1 (hGal-1), 5100 nM.
For the compound `O=C(CO[C@@H]1[C@@H](n2cc(-c3cc(F)c(F)c(F)c3)nn2)[C@@H](O)[C@@H](CO)O[C@@H]1CC1=NOC2(CCCCC2)C1)N1CCOCC1` [Example 1.71, 2-(((2R,3R,4S,5R,6R)-2-((1-oxa-2-azaspiro[4.5]dec-2-en-3-yl)methyl)-5-hydroxy-6-(hydroxymethyl)-4-(4-(3,4,5-trifluorophenyl)-1H-1,2,3-triazol-1-yl)tetrahydro-2H-pyran-3-yl)oxy)-1-morpholinoethan-1-one], the figures for the IC50 at human Gal-3 (hGal-3) and at human Gal-1 (hGal-1) were 200 nM and 2900 nM, respectively.
As to `COC(=O)CO[C@@H]1[C@@H](n2cc(-c3ccc(C)c(F)c3F)nn2)[C@@H](O)[C@@H](CO)O[C@@H]1CC1=NOC2(CCC(F)(F)CC2)C1` [Example 1.72, methyl 2-(((2R,3R,4S,5R,6R)-2-((8,8-difluoro-1-oxa-2-azaspiro[4.5]dec-2-en-3-yl)methyl)-4-(4-(2,3-difluoro-4-methylphenyl)-1H-1,2,3-triazol-1-yl)-5-hydroxy-6-(hydroxymethyl)tetrahydro-2H-pyran-3-yl)oxy)acetate], the values for the IC50 at human Gal-3 (hGal-3) and at human Gal-1 (hGal-1) were 140 nM and 5600 nM, respectively.
In the same order, the values of `NC(=O)O[C@@H]1[C@@H](n2cc(-c3cc(F)c(F)c(F)c3)nn2)[C@@H](O)[C@@H](CO)O[C@@H]1CC1=NOC2(CCCCC2)C1` [Example 1.73, (2R,3R,4S,5R,6R)-2-((1-oxa-2-azaspiro[4.5]dec-2-en-3-yl)methyl)-5-hydroxy-6-(hydroxymethyl)-4-(4-(3,4,5-trifluorophenyl)-1H-1,2,3-triazol-1-yl)tetrahydro-2H-pyran-3-yl carbamate] are 110 nM and 6500 nM.
The matching figures for `CO[C@@H]1[C@@H](n2cc(-c3ccc(C)c(F)c3F)nn2)[C@@H](O)[C@@H](CO)O[C@@H]1CC1=NO[C@]2(CC[C@H](NCC(F)F)CC2)C1` [Example 1.74, (2R,3R,4S,5R,6R)-4-(4-(2,3-difluoro-4-methylphenyl)-1H-1,2,3-triazol-1-yl)-6-(((5r,8R)-8-((2,2-difluoroethyl)amino)-1-oxa-2-azaspiro[4.5]dec-2-en-3-yl)methyl)-2-(hydroxymethyl)-5-methoxytetrahydro-2H-pyran-3-ol]: 120 nM and 2400 nM.
In the same order, the values of `CO[C@@H]1[C@@H](n2cc(-c3ccc(Cl)c(F)c3F)nn2)[C@@H](O)[C@@H](CO)O[C@@H]1CC1=NOC2(C1)CN(C(=O)OC(C)(C)C)C2` [Example 1.80, tert-butyl 7-(((2R,3R,4S,5R,6R)-4-(4-(4-chloro-2,3-difluorophenyl)-1H-1,2,3-triazol-1-yl)-5-hydroxy-6-(hydroxymethyl)-3-methoxytetrahydro-2H-pyran-2-yl)methyl)-5-oxa-2,6-diazaspiro[3.4]oct-6-ene-2-carboxylate] are 310 nM and 7200 nM.
Turning to `CO[C@@H]1[C@@H](n2cc(-c3ccc(C)c(F)c3F)nn2)[C@@H](O)[C@@H](CO)O[C@@H]1CC1=NOC2(C1)CC1CCC2C1` (stereo partly drawn) [Example 1.81, (2R,3R,4S,5R,6R)-6-((4′H-spiro[bicyclo[2.2.1]heptane-2,5′-isoxazol]-3′-yl)methyl)-4-(4-(2,3-difluoro-4-methylphenyl)-1H-1,2,3-triazol-1-yl)-2-(hydroxymethyl)-5-methoxytetrahydro-2H-pyran-3-ol], the IC50 on human Gal-3 (hGal-3) was 60 nM; at human Gal-1 (hGal-1) it was 2370 nM.
